Experimental data: patent US20170197935A1, “INHIBITORS OF DNA GYRASE FOR THE TREATMENT OF BACTERIAL INFECTIONS” (Vitas Pharma Research Private Limited, priority 2012, published 2017)
In brackets after ≈: the same amount, converted by molar mass. Read-outs that look alike come from different tables or passages of the source.

How the values were obtained:
Assay type in all cases: cell-based
[1] = system: Staphylococcus aureus (ATCC 29213); assay: MIC by microbroth dilution, Staphylococcus aureus ATCC 29213; details: ATCC29213
Procedure: (§1) Shown below are the microbiological activities of representative compounds of Formula I of the invention. The compounds were tested by the microbroth dilution method (National committee for Clinical Laboratory Standards, 2011, […]-08) and the Minimum Inhibitory Concentration (MIC) was determined.

[2] = system: K. pneumoniae (ATCC 700603); assay: MIC by microbroth dilution, K. pneumoniae ATCC 700603; details: Klebsiella pneumoniae, ATCC700603, Formula I compounds
Procedure: (§2) Shown below are the microbiological activities of representative compounds of Formula I of the invention. The compounds were tested by the microbroth dilution method (National committee for Clinical Laboratory Standards, 2011, M07-08) and the Minimum Inhibitory Concentration (MIC) was determined.
(§3) Analysis of microbiological activity of compounds shown below are the microbiological activities of representative compounds of Formula II of the invention. The compounds were tested by the microbroth dilution method as per the reference in Example 1.

[3] = system: Streptococcus pneumoniae (ATCC 6301); assay: MIC by microbroth dilution, Streptococcus pneumoniae ATCC 6301; details: ATCC6301
Procedure: as §1

[4] = system: Methicillin resistant Staphylococcus aureus (ATCC 33591); assay: MIC by microbroth dilution, MRSA ATCC 33591
Procedure: as §2, §3

[5] = system: Moraxella catarrhalis (ATCC 8176); assay: MIC by microbroth dilution, Moraxella catarrhalis ATCC 8176; details: ATCC8176
Procedure: as §1

E. coli (ATCC 25922) = assay: MIC by microbroth dilution, E. coli ATCC 25922; details: Escherichia coli
Procedure: as §2, §3

[6] = system: Enterococcus faecalis (ATCC 29212); assay: MIC by microbroth dilution, Enterococcus faecalis ATCC 29212; details: ATCC29212
Procedure: as §1

[7] = ATCC33591, Formula I compounds, read-out: MIC Methicillin resistant Staphylococcus aureus (ATCC 33591)
[8] = ATCC25922, Formula I compounds, read-out: MIC E. coli (ATCC 25922)
[9] = ATCC25922, Formula II compounds, read-out: Minimum Inhibitory Concentration (MIC) E. coli ATCC 25922

Row | Structure (SMILES) | MIC [4, 7] [µg/mL] | MIC (E. coli (ATCC 25922); [8]) [µg/mL] | MIC (E. coli (ATCC 25922); [9]) [µg/mL] | MIC ([4]; Formula II compounds, read-out: Minimum Inhibitory Concentration (MIC) MRSA ATCC 33591) [µg/mL] | MIC [1] [µg/mL] | MIC [2] [µg/mL] | MIC [3] [µg/mL] | MIC [5] [µg/mL] | MIC [6] [µg/mL]
1 | COc1ccc2ncc(C#N)c(CCN3C4CCC3CC(NCc3cc5c(cc3F)OCCO5)C4)c2c1 (centres unmarked) [VT-03-00031] | 2 (≈ 3.98 µM) | 16 (≈ 31.8 µM) |  |  | 1 (≈ 1.99 µM) | > 32 | 1 (≈ 1.99 µM) | 4 (≈ 7.96 µM) | 2 (≈ 3.98 µM)
2 | COc1ccc2ncc(C#N)c(CCN3C4CCC3CC(NS(=O)(=O)c3ccc5c(c3)OCCO5)C4)c2c1 (centres unmarked) [VT-03-00021] | 0.12 (≈ 0.224 µM) | 16 (≈ 29.9 µM) |  |  | 0.25 (≈ 0.468 µM) | > 32 | 1 (≈ 1.87 µM) | 2 (≈ 3.74 µM) | 2 (≈ 3.74 µM)
3 | COc1ccc2ncc(C#N)c(CCN3[C@@H]4CC[C@H]3CC(NCc3cc5c(c([N+](=O)[O-])c3)OCO5)C4)c2c1 (some centres unmarked) [VT-03-00070] | > 4 | > 4 |  |  | > 4 |  |  |  | 
4 | COc1ccc2ncc(C#N)c(CCN3C4CCC3CC(NCc3cc5c(cn3)OCS5)C4)c2c1 (centres unmarked) [VT-03-00014] | 4 (≈ 8.2 µM) | 32 (≈ 65.6 µM) |  |  | 2 (≈ 4.1 µM) | > 128 | 2 (≈ 4.1 µM) | 4 (≈ 8.2 µM) | 4 (≈ 8.2 µM)
5 | COc1ccc2ncc(=O)n(CCN3CCC(NCc4ccc(C)c([N+](=O)[O-])c4)CC3)c2n1 [VT-03-00125] |  |  | 32 (≈ 70.7 µM) | > 4 |  |  |  |  | 
6 | COc1ccc2ncc(C#N)c(CCN3C4CCC3CC(NCc3ccc5c(c3)OCCO5)C4)c2c1 (centres unmarked) [VT-03-00021a] | 0.06 (≈ 0.124 µM) | 16 (≈ 33 µM) |  |  | ≤ 0.03 |  | 0.12 (≈ 0.248 µM) | 2 (≈ 4.13 µM) | 2 (≈ 4.13 µM)
7 | COc1ccc2ncc(C#N)c(CCN3C4CCC3CC(NS(=O)(=O)c3ccccc3C)C4)c2c1 (centres unmarked) [VT-03-00017] | > 32 | > 32 |  |  | > 32 |  | > 16 | > 16 | > 64
8 | COc1ccc2ncc(C#N)c(CCN3C4CCC3CC(NCc3cc5c(cn3)OCCO5)C4)c2c1 (centres unmarked) [VT-03-00027] | 4 (≈ 8.24 µM) | > 32 |  |  | 2 (≈ 4.12 µM) |  | 2 (≈ 4.12 µM) | 8 (≈ 16.5 µM) | 4 (≈ 8.24 µM)
9 | COc1ccc2ncc(C#N)c(CCN3[C@@H]4CC[C@H]3CC(NCc3ccc([N+](=O)[O-])s3)C4)c2c1 (some centres unmarked) [VT-03-00074] | 2 (≈ 4.19 µM) | 32 (≈ 67 µM) |  |  | 1 (≈ 2.09 µM) |  | 2 (≈ 4.19 µM) | 2 (≈ 4.19 µM) | 8 (≈ 16.8 µM)

Continued, in another order:

Row | MIC [4, 7] [µg/mL] | MIC (E. coli (ATCC 25922); [8]) [µg/mL] | MIC (E. coli (ATCC 25922); [9]) [µg/mL] | MIC ([4]; Formula II compounds, read-out: Minimum Inhibitory Concentration (MIC) MRSA ATCC 33591) [µg/mL] | Structure (SMILES) | MIC [1] [µg/mL] | MIC [2] [µg/mL] | MIC [3] [µg/mL] | MIC [5] [µg/mL] | MIC [6] [µg/mL]
10 | 0.5 (≈ 1.11 µM) | 16 (≈ 35.4 µM) |  |  | COc1ccc2ncc(=O)n(CCN3CCC(NCc4ccc([N+](=O)[O-])c(C)c4)CC3)c2c1 [VT-03-00067] | 0.12 (≈ 0.266 µM) | 32 (≈ 70.9 µM) | 0.25 (≈ 0.554 µM) | 2 (≈ 4.43 µM) | 
11 |  |  | 2 (≈ 4.3 µM) |  | Cc1ccc(CNC2CCN(CCn3c(=O)cnc4ccc(C(=O)O)cc43)CC2)cc1[N+](=O)[O-] [VT-03-00124] |  |  |  |  | 
12 | 0.12 (≈ 0.239 µM) | 4 (≈ 7.96 µM) |  |  | COc1ccc2ncc(C#N)c(CCN3CCC(NCc4ccc(C)c([N+](=O)[O-])c4)(C(N)=O)CC3)c2c1 [VT-03-00083] | 0.06 (≈ 0.119 µM) |  |  |  | 
13 | 0.5 (≈ 1.06 µM) | > 32 |  |  | COc1ccc2ncc(C#N)c(CCN3C[C@@H]4C[C@H]3CN4CNc3ccc4c(c3)OCCO4)c2c1 [VT-03-00028] | 0.25 (≈ 0.53 µM) | > 32 | 0.25 (≈ 0.53 µM) | 4 (≈ 8.48 µM) | 1 (≈ 2.12 µM)
14 | > 16 | > 32 |  |  | COc1ccc2c(c1)c(CCN1CCC(NCc3ccc4c(c3)OCCO4)CC1)c(C#N)c(=O)n2C [VT-03-00043] | 16 (≈ 32.7 µM) |  |  |  | 
15 | 0.5 (≈ 1.08 µM) | 16 (≈ 34.5 µM) |  |  | COc1ccc2ncc(C#N)c(CCN3CCC(NCc4cc([N+](=O)[O-])ccc4F)CC3)c2c1 [VT-03-00050] | 0.25 (≈ 0.539 µM) | > 16 | 4 (≈ 8.63 µM) | 4 (≈ 8.63 µM) | 4 (≈ 8.63 µM)
16 | 0.5 (≈ 1.12 µM) | 8 (≈ 18 µM) |  |  | COc1ccc2ncc(C#N)c(CCN3CC(CNCc4ccc(C)c([N+](=O)[O-])c4)C3)c2c1 [VT-03-00084] | 0.5 (≈ 1.12 µM) |  | 0.25 (≈ 0.561 µM) | 2 (≈ 4.49 µM) | 2 (≈ 4.49 µM)
17 | > 16 | > 32 |  |  | COc1ccc2c(c1)c(CCN1CCC(NCc3ccc4c(c3)NC(=O)CO4)CC1)c(C#N)c(=O)n2C [VT-03-00042] | > 16 |  |  |  | 
18 | > 4 | > 32 |  |  | COc1ccc2ncc(C#N)c(CCN3CCC(NCc4cc(OC)c(O)c([N+](=O)[O-])c4)CC3)c2c1 [VT-03-00060] | > 4 |  |  | > 32 | 
19 | 1 (≈ 2.24 µM) | > 32 |  |  | COc1ccc2ncc(C#N)c(CCN3CCC(NCc4ccc([N+](=O)[O-])cn4)CC3)c2c1 [VT-03-00081] |  |  |  |  | 
